According to patent US20190208800A1, “L-GLUTAMINE IN SWINE DIETS” (The United States of America, as represented by the …, priority 2018, published 2019):
Marks after values point to notes of the source that are not given here.

Assays:
enteric disease = assay: Example 2: percentage of pigs treated for enteric disease (FIG. 1); type: in vivo; conditions: 0.20% L-glutamine diet; Period 1 (d 0-14) and Period 2 (d 15-34) post-weaning and transport
Description: Period 1 is 0-14 days post-weaning and transport and Period 2 is 15-34 days post-weaning and transport. Error bars represent ±1 standard error of the mean (SEM). Letters (a, b) indicate statistically significant differences (P≤0.05) between dietary treatments and symbols (*, #) indicate statistically significant differences (P≤0.05) between periods. In a larger example, three groups of post-weaning and post-transport pigs (each group n=160, total of 480 pigs, 50% male and 50% female) were fed on different diets to assess the effects of L-glutamine as a supplement in the diet in a production environment. The diets consisted primarily of corn and soybean meal as in Example 1. One group (Group A) was fed a standard swine feed in two phases containing a standard antibiotic supplement (400 g chlortetracycline and 35 g tiamulin/ton of feed), another group (GLN) was fed a standard swine feed in two phases containing 0.20% L-glutamine, and a third group (NA) was given a standard swine diet in two phases containing no antibiotics or immunomodulators. Otherwise, the diets for groups A, GLN, and NA were the same. […] Data were analyzed on a per pen basis and the assumptions of normality of error, homogeneity of variance, and linearity were confirmed post-hoc.

[1] = Example 2: grow-finish growth performance (d 0 to d 125) until market; type: in vivo, pigs
Description: (§1) In a larger example, three groups of post-weaning and post-transport pigs (each group n=160, total of 480 pigs, 50% male and 50% female) were fed on different diets to assess the effects of L-glutamine as a supplement in the diet in a production environment. The diets consisted primarily of corn and soybean meal as in Example 1. One group (Group A) was fed a standard swine feed in two phases containing a standard antibiotic supplement (400 g chlortetracycline and 35 g tiamulin/ton of feed), another group (GLN) was fed a standard swine feed in two phases containing 0.20% L-glutamine, and a third group (NA) was given a standard swine diet in two phases containing no antibiotics or immunomodulators. Otherwise, the diets for groups A, GLN, and NA were the same. The disparate diets were given to the different groups for 14 days post-weaning and transport, following which all three groups were on a common diet for the remainder of the trial. This experiment was conducted from Jul. 28, 2016 to Sep. 21, 2017. The pigs were followed all the way through market (i.e., day 125 post-weaning, being about 6 months of age). As stated above, the pigs were followed through to market-readiness at six months of age.

[2] = system: tumor necrosis factor alpha (TNFα); assay: Example 3: tumor necrosis factor alpha in pigs' blood (FIG. 2); type: in vivo; conditions: blood samples; diets for 14 days after weaning and 12 h transport; vs no antibiotics
Method: Error bars represent ±1 standard error of the mean (SEM). Letters (a, b) indicate statistically significant differences (P≤0.05) between dietary treatments. In a similar experiment to the one above in Example 2, an L-glutamine-containing diet was evaluated for pigs to determine how it affected their general health and productivity. The experiment was conducted under commercial production conditions using a total of 480 mixed-sex (50% male and 50% female) pigs. Pigs were weaned and then transported for 12 hours to the nursery facility. Once pigs arrived at the nursery facility they were provided 1 of 3 separate diets, those being no antibiotics or L-glutamine (NA); 0.20% L-glutamine (GLN); or dietary antibiotics (A) for 14 days. After the 14-day period all pigs were provided the same antibiotic-free diets until they reached market weight. Blood and intestinal samples were collected from pigs to determine whole body immune function and intestinal integrity. […] Specifically, blood samples from the pigs were tested for tumor necrosis factor alpha (TNFα), a pro-inflammatory cytokine, elevated levels of which can be indicative of systemic inflammation and immune system activation which can be detrimental to the health and productivity of pigs. A reduction in circulating TNFα would be indicative of a decreased whole body inflammatory response in pigs. […]

intestines = assay: Example 3: ratio of villus height to crypt depth in the intestines (FIG. 3); type: in vivo, pigs; conditions: intestinal samples; diets for 14 days after weaning and 12 h transport; compared to NA
Method: Error bars represent ±1 standard error of the mean (SEM). Letters (x, y) indicate statistical tendencies (0.05<P≤0.10) between dietary treatments. In a similar experiment to the one above in Example 2, an L-glutamine-containing diet was evaluated for pigs to determine how it affected their general health and productivity. The experiment was conducted under commercial production conditions using a total of 480 mixed-sex (50% male and 50% female) pigs. Pigs were weaned and then transported for 12 hours to the nursery facility. Once pigs arrived at the nursery facility they were provided 1 of 3 separate diets, those being no antibiotics or L-glutamine (NA); 0.20% L-glutamine (GLN); or dietary antibiotics (A) for 14 days. After the 14-day period all pigs were provided the same antibiotic-free diets until they reached market weight. Blood and intestinal samples were collected from pigs to determine whole body immune function and intestinal integrity. […] In particular, intestinal samples from pigs were analyzed to determine the ratio of villus height to crypt depth in the intestines. Villus height to crypt depth ratio is a morphological measure of intestinal health and a greater ratio indicates an improvement in intestinal health. […] Improved intestinal health is essential for nutrient absorption and preventing pathogens from entering the body. […]

[3] = Example 2: nursery growth performance (d 0 to d 34 post-weaning) in a production environment; type: in vivo, pigs
Description: as §1, with “age).” for “age). As stated above, the pigs were followed through to market-readiness at six months of age.”

[4] = Example 1: small-scale simulated transport of post-weaning pigs, 14-day diets; type: in vivo; conditions: 0.20% L-glutamine diet, 14 days post-weaning and simulated transport
Description: In a small-scale example, three groups of post-weaning pigs were subjected to a simulated transport experience immediately post-weaning and then provided different diets to assess the effects of L-glutamine as a supplement in the diet. The details of the procedure are given in full in “Evaluating the behavior, growth performance, immune parameters, and intestinal morphology of weaned piglets after simulated transport and heat stress when antibiotics are eliminated from the diet or replaced with L-glutamine” by Johnson, J. S. and Lay Jr., D. C. in the Journal of Animal Science (2017, 95, 91-102), which is incorporated herein in its entirety by reference. In this experiment, the piglets were fed on disparate feeds for 14 days post-weaning and simulated transport, and then euthanized by CO2 exposure and exsanguination.

[5] = d 0 to 14 post-weaning, diet treatment period
[6] = d 0 to 34 post-weaning, overall nursery
[7] = d 15 to 34 post-weaning, common diet period

SMILES: NC(=O)CC[C@H](N)C(=O)O [GLN, L-glutamine]
- requirement for injectable therapeutic antibiotics for enteric disease (enteric disease): the same requirement for injectable therapeutic antibiotics for enteric disease as the piglets fed the antibiotics
- growth performance of piglets through the end of the nursery phase ([1]; body weight at start of grow-finish phase vs no antibiotic pigs): effective in improving the growth performance of piglets through the end of the nursery phase
- Feed efficiency, gain: feed ([1]; d 0 to 62 of grow-finish phase, common diet): 0.46
- Feed efficiency, gain: feed ([1]; d 0 to 125 of grow-finish phase): 0.38
- d 62 body weight ([1]; d 62 of grow-finish phase): 65.02 kg
- Feed efficiency, gain: feed ([1]; d 62 to 125 of grow-finish phase, common diet): 0.31
- Final body weight ([1]; d 125, market): 121.73 kg
- Initial body weight ([1]; start of grow-finish phase (d 0), diets given 14 days post-weaning, then common diet): 17.49^a kg
- circulating TNFα [2]: reduced at a similar level
- villus height to crypt depth ratio (intestines): greater
- overall nursery phase performance ([3]; d 0-34 post-weaning, vs antibiotic pigs): performed similarly to the antibiotic pigs
- Average daily feed intake [3, 5]: 272.06^a g
- Average daily gain [3, 5]: 210.78^a g
- Feed efficiency, gain: feed [3, 5]: 0.79^ab
- Average daily feed intake [3, 6]: 517.08^xy g
- Average daily gain [3, 6]: 352.73^ab g
- Feed efficiency, gain: feed [3, 6]: 0.71^ab
- d 14 body weight ([3]; d 14 post-weaning): 8.50^a kg
- Average daily feed intake [3, 7]: 680.43 g
- Average daily gain [3, 7]: 447.36 g
- Feed efficiency, gain: feed [3, 7]: 0.66
- d 34 body weight ([3]; d 34 post-weaning): 17.49^ab kg
- feed intake, average daily gain, and final body weight compared to the non-antibiotic group ([3]; diet treatment period, d 0-14 post-weaning): significantly higher
- effectiveness in other parameters ([4]; vs antibiotics): approximately as effective as the antibiotics
- productivity ([4]; vs non-antibiotic and antibiotic group): better productivity compared to the non-antibiotic and antibiotic group
